Measured values reported in paper PMC12090182, “Repurposing of the RIPK1-Selective Benzo[1,4]oxazepin-4-one Scaffold for the Development of a Type III LIMK1/2 Inhibitor” (ACS Chemical Biology, 2025).

Key:
Test in all cases: scanMAX KINOMEscan (Eurofins)
Assay type in all cases: binding
AMPK-alpha1 = AMPK-alpha1 (Homo sapiens, UniProt Q13131); conditions: 1000 nM, read-out: Percent Control
Excerpt: (§1) Supplement cb5c00097_si_002.xlsx, sheet "Table S6 (Eurofins Selectivity)" | column: Percent Control

GAK = GAK (Homo sapiens, UniProt O14976); conditions: read-out: Percent Control
Excerpt: as §1

CDK3 = CDK3 (Homo sapiens, UniProt Q00526); conditions: 1000 nM, read-out: Percent Control
Excerpt: as §1

DYRK2 = DYRK2 (Homo sapiens, UniProt Q92630); conditions: read-out: Percent Control
Excerpt: as §1

DAPK1 = DAPK1 (Homo sapiens, UniProt P53355); conditions: 1000 nM, read-out: Percent Control
Excerpt: as §1

ERK4 = ERK4 (Homo sapiens, UniProt P31152); conditions: 1000 nM, read-out: Percent Control
Excerpt: as §1

CSNK1E = CSNK1E (Homo sapiens, UniProt P49674); conditions: read-out: Percent Control
Excerpt: as §1

p38-delta = p38-delta (Homo sapiens, UniProt O15264); conditions: compound concentration 100 nM; Entrez MAPK13; read-out: Percent Control
Excerpt: as §1

LATS1 = LATS1 (Homo sapiens, UniProt O95835); conditions: 1000 nM, read-out: Percent Control
Excerpt: as §1

MEK5 = MEK5 (Homo sapiens, UniProt Q13163); conditions: 1000 nM, read-out: Percent Control
Excerpt: as §1

FLT4 = FLT4 (Homo sapiens, UniProt P35916); conditions: 1000 nM, read-out: Percent Control
Excerpt: as §1

CAMKK2 = CAMKK2 (Homo sapiens, UniProt Q96RR4); conditions: 1000 nM, read-out: Percent Control
Excerpt: as §1

ANKK1 = ANKK1 (Homo sapiens, UniProt Q8NFD2); conditions: 1000 nM, read-out: Percent Control
Excerpt: as §1

CDKL2 = CDKL2 (Homo sapiens, UniProt Q92772); conditions: read-out: Percent Control
Excerpt: as §1

DDR1 = DDR1 (Homo sapiens, UniProt Q08345); conditions: read-out: Percent Control
Excerpt: as §1

SGK2 = SGK2 (Homo sapiens, UniProt Q9HBY8); conditions: 1000 nM, read-out: Percent Control
Excerpt: as §1

PRKG2 = PRKG2 (Homo sapiens, UniProt Q13237); conditions: 1000 nM, read-out: Percent Control
Excerpt: as §1

[1] = target: RSK1(Kin.Dom.2-C-terminal) (Homo sapiens, UniProt Q15418); conditions: compound concentration 100 nM; Entrez RPS6KA1; read-out: Percent Control
Excerpt: as §1

CDK11 = CDK11 (Homo sapiens, UniProt Q9BWU1); conditions: read-out: Percent Control
Excerpt: as §1

MEK6 = MEK6 (Homo sapiens, UniProt P52564); conditions: compound concentration 100 nM; Entrez MAP2K6; read-out: Percent Control
Excerpt: as §1

GRK7 = GRK7 (Homo sapiens, UniProt Q8WTQ7); conditions: 1000 nM, read-out: Percent Control
Excerpt: as §1

SNRK = SNRK (Homo sapiens, UniProt Q9NRH2); conditions: compound concentration 100 nM; Entrez SNRK; read-out: Percent Control
Excerpt: as §1

PRKD1 = PRKD1 (Homo sapiens, UniProt Q15139); conditions: 1000 nM, read-out: Percent Control
Excerpt: as §1

ROCK1 = ROCK1 (Homo sapiens, UniProt Q13464); conditions: 1000 nM, read-out: Percent Control
Excerpt: as §1

PRP4 = PRP4 (Homo sapiens, UniProt Q13523); conditions: compound concentration 100 nM; Entrez PRPF4B; read-out: Percent Control
Excerpt: as §1

PFTK1 = PFTK1 (Homo sapiens, UniProt O94921); conditions: 1000 nM, read-out: Percent Control
Excerpt: as §1

FGR = FGR (Homo sapiens, UniProt P09769); conditions: read-out: Percent Control
Excerpt: as §1

NEK3 = NEK3 (Homo sapiens, UniProt P51956); conditions: 1000 nM, read-out: Percent Control
Excerpt: as §1

PIKFYVE = PIKFYVE (Homo sapiens, UniProt Q9Y2I7); conditions: compound concentration 100 nM; Entrez PIKFYVE; read-out: Percent Control
Excerpt: as §1

FLT1 = FLT1 (Homo sapiens, UniProt P17948); conditions: 1000 nM, read-out: Percent Control
Excerpt: as §1

MLK1 = MLK1 (Homo sapiens, UniProt P80192); conditions: compound concentration 100 nM; Entrez MAP3K9; read-out: Percent Control
Excerpt: as §1

ACVR2B = ACVR2B (Homo sapiens, UniProt Q13705); conditions: 1000 nM, read-out: Percent Control
Excerpt: as §1

EPHB4 = EPHB4 (Homo sapiens, UniProt P54760); conditions: 1000 nM, read-out: Percent Control
Excerpt: as §1

PDGFRA = PDGFRA (Homo sapiens, UniProt P16234); conditions: 1000 nM, read-out: Percent Control
Excerpt: as §1

DYRK1A = DYRK1A (Homo sapiens, UniProt Q13627); conditions: 1000 nM, read-out: Percent Control
Excerpt: as §1

SRPK1 = SRPK1 (Homo sapiens, UniProt Q96SB4); conditions: 1000 nM, read-out: Percent Control
Excerpt: as §1

MYO3B = MYO3B (Homo sapiens, UniProt Q8WXR4); conditions: 1000 nM, read-out: Percent Control
Excerpt: as §1

Chain of CSNK1E (P49674 whole entry): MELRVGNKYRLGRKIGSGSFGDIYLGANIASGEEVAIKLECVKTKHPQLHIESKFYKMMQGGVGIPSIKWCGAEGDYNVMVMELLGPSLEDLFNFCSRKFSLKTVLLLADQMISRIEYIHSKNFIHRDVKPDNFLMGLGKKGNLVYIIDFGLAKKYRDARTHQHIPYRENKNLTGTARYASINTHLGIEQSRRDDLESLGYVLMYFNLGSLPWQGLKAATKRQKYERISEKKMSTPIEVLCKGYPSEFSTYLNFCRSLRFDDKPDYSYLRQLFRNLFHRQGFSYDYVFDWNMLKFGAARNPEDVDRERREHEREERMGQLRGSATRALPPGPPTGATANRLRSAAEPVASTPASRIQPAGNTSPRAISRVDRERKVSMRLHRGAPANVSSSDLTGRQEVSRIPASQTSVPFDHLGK
Chain of DYRK2 (Q92630 whole entry): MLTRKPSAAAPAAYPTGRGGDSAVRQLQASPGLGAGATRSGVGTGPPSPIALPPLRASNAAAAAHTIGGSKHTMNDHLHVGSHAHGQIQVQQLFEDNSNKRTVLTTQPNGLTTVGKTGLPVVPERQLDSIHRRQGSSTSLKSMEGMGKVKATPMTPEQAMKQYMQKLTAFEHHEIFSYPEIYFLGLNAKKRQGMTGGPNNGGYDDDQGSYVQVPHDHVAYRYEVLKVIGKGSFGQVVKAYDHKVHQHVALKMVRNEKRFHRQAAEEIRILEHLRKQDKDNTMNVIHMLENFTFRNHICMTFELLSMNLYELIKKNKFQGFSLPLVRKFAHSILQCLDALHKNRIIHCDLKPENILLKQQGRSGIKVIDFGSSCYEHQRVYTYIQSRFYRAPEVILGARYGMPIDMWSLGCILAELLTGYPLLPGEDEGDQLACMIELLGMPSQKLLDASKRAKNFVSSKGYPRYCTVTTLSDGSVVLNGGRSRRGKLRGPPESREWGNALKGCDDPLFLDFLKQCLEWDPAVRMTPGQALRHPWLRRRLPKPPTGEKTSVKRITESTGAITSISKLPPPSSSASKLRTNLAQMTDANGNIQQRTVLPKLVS
Chain of GAK (O14976 whole entry): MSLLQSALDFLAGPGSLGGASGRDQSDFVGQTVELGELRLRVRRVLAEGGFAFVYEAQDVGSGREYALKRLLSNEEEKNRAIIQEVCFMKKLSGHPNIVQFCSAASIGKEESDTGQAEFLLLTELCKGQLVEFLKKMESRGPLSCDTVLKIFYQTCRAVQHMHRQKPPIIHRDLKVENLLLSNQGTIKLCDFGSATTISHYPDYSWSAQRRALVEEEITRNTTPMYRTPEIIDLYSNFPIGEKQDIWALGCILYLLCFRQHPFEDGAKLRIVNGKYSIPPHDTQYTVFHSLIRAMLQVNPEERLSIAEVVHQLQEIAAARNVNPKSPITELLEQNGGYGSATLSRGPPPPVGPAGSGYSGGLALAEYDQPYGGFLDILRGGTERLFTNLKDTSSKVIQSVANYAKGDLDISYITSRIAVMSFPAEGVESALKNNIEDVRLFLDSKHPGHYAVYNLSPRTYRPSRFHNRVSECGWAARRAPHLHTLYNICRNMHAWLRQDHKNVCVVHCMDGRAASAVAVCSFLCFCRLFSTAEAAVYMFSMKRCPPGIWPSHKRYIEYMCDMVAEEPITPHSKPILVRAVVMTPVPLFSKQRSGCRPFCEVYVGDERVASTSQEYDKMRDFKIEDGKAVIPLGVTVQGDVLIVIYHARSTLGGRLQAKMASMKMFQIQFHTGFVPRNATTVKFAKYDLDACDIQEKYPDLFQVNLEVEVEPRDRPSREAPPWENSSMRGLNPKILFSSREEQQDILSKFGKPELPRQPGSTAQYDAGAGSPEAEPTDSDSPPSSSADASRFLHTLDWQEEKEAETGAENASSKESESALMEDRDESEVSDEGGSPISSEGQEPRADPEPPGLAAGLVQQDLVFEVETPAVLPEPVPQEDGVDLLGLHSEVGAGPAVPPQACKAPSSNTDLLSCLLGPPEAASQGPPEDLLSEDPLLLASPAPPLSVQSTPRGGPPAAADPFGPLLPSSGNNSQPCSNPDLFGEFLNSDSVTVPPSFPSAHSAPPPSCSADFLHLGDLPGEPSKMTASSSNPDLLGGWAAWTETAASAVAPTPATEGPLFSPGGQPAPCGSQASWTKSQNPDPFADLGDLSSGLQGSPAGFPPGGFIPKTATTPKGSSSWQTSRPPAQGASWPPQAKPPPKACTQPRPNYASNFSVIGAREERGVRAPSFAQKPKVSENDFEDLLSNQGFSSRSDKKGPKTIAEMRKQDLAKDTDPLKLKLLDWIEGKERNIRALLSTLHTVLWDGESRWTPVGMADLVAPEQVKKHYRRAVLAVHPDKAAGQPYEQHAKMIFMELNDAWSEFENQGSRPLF
Chain of CDK11 (Q9BWU1 whole entry): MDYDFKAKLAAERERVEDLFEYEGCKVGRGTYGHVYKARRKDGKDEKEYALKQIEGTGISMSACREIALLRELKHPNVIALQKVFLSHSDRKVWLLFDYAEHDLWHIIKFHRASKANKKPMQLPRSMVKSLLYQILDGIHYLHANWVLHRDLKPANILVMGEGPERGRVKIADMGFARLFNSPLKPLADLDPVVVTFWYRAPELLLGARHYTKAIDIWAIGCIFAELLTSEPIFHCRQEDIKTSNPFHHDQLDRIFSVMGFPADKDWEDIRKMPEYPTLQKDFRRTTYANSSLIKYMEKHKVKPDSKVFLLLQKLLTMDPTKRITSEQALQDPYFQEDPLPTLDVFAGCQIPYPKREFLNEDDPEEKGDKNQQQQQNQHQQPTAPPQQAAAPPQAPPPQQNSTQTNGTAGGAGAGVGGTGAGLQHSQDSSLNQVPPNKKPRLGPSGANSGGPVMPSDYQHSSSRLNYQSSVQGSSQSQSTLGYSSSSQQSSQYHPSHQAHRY
Chain of FGR (P09769 whole entry): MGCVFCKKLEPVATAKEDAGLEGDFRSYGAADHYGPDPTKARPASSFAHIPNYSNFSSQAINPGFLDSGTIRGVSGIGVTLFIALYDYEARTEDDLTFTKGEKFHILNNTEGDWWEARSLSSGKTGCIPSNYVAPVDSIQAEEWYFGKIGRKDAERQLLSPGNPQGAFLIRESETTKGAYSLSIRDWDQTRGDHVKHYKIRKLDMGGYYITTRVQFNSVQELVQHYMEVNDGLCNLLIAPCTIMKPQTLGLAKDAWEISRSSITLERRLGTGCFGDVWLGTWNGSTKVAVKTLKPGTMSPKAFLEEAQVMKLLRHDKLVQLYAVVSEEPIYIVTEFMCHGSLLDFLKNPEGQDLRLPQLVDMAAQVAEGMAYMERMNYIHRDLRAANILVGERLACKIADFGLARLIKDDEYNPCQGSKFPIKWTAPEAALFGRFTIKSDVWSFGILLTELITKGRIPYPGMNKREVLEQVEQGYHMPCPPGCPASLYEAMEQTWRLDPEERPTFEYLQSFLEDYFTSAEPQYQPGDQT
Chain of CDKL2 (Q92772 whole entry): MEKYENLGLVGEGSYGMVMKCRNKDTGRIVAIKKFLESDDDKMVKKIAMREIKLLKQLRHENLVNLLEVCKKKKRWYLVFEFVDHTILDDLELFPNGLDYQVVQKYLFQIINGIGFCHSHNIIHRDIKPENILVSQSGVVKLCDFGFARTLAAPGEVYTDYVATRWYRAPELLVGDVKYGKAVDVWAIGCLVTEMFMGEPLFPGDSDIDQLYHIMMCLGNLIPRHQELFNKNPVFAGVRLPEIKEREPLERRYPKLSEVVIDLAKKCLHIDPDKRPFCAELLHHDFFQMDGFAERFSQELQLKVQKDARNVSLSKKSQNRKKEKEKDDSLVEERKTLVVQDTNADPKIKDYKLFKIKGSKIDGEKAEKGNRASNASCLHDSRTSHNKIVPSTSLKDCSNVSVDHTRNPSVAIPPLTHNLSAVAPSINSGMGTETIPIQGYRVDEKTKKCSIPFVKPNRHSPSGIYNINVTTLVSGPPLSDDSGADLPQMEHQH
Chain of DDR1 (Q08345 19-913): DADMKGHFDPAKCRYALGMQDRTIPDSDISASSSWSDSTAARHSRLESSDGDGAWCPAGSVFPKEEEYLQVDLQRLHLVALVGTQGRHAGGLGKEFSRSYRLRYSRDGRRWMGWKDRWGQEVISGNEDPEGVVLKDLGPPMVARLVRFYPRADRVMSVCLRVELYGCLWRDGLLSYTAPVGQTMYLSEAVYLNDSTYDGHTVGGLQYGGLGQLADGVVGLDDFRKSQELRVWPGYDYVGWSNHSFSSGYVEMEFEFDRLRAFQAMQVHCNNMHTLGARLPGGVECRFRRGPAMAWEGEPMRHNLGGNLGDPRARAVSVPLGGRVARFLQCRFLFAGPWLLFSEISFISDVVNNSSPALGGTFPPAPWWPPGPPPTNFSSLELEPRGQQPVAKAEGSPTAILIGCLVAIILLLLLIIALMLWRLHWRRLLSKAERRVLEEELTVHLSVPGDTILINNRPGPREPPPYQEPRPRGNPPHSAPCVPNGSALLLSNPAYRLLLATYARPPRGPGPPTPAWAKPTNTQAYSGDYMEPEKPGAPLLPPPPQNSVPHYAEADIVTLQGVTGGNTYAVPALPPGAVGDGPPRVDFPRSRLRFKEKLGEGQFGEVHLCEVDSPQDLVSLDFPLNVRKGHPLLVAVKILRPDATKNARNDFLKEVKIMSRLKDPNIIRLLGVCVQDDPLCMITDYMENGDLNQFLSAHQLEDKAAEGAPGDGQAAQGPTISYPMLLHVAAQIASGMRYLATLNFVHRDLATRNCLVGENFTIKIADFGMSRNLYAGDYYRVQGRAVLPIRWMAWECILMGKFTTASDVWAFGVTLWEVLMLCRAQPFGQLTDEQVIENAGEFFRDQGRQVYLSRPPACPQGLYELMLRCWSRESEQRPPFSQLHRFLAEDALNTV
Chain of RSK1(Kin.Dom.2-C-terminal) (Q15418 418-675): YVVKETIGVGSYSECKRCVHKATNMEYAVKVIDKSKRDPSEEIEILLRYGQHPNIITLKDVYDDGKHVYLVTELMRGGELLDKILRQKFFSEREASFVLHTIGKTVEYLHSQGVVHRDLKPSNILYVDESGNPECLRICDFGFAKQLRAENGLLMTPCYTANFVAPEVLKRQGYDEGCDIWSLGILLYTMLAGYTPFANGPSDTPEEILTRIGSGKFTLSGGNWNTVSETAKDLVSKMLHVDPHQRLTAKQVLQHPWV

CN1C(=O)[C@@H](N2CCc3c(nn(Cc4ccccc4)c3C(N)=O)C2=O)COc2cc(Cl)ccc21 [Compound 10, (S)-2-benzyl-6-(8-chloro-5-methyl-4-oxo-2,3,4,5-tetrahydrobenzo[b][1,4]oxazepin-3-yl)-7-oxo-4,5,6,7-tetrahydro-2H-pyrazolo[3,4-c]pyridine-3-carboxamide]
remaining binding at 1 µM (AMPK-alpha1): 87% | remaining binding at 1 µM (GAK; 1000 nM): 100% | remaining binding at 0.1 µM (GAK; compound concentration 100 nM, Entrez GAK): 87% | remaining binding at 1 µM (CDK3): 87% | remaining binding at 1 µM (DYRK2; 1000 nM): 100% | remaining binding at 0.1 µM (DYRK2; compound concentration 100 nM, Entrez DYRK2): 100% | remaining binding at 1 µM (DAPK1): 96% | remaining binding at 1 µM (ERK4): 92% | remaining binding at 1 µM (CSNK1E; 1000 nM): 100% | remaining binding at 0.1 µM (CSNK1E; compound concentration 100 nM, Entrez CSNK1E): 91% | remaining binding at 0.1 µM (p38-delta): 79% | remaining binding at 1 µM (LATS1): 82% | remaining binding at 1 µM (MEK5): 82% | remaining binding at 1 µM (FLT4): 92% | remaining binding at 1 µM (CAMKK2): 80% | remaining binding at 1 µM (ANKK1): 80% | remaining binding at 1 µM (CDKL2; 1000 nM): 100% | remaining binding at 0.1 µM (CDKL2; compound concentration 100 nM, Entrez CDKL2): 100% | remaining binding at 1 µM (DDR1; 1000 nM): 100% | remaining binding at 0.1 µM (DDR1; compound concentration 100 nM, Entrez DDR1): 77% | remaining binding at 1 µM (SGK2): 95% | remaining binding at 1 µM (PRKG2): 90% | remaining binding at 0.1 µM [1]: 97% | remaining binding at 1 µM (CDK11; 1000 nM): 100% | remaining binding at 0.1 µM (CDK11; compound concentration 100 nM, Entrez CDK19): 100% | remaining binding at 0.1 µM (MEK6): 88% | remaining binding at 1 µM (GRK7): 98% | remaining binding at 0.1 µM (SNRK): 99% | remaining binding at 1 µM (PRKD1): 97% | remaining binding at 1 µM (ROCK1): 69% | remaining binding at 0.1 µM (PRP4): 67% | remaining binding at 1 µM (PFTK1): 79% | remaining binding at 1 µM (FGR; 1000 nM): 100% | remaining binding at 0.1 µM (FGR; compound concentration 100 nM, Entrez FGR): 77% | remaining binding at 1 µM (NEK3): 86% | remaining binding at 0.1 µM (PIKFYVE): 98% | remaining binding at 1 µM (FLT1): 86% | remaining binding at 0.1 µM (MLK1): 89% | remaining binding at 1 µM (ACVR2B): 94% | remaining binding at 1 µM (EPHB4): 94% | remaining binding at 1 µM (PDGFRA): 87% | remaining binding at 1 µM (DYRK1A): 93% | remaining binding at 1 µM (SRPK1): 88% | remaining binding at 1 µM (MYO3B): 96%
